The subject of one experiment is rabbit or monkey LDL. Put plainly: Inhibition of Copper Ion Mediated Oxidation of Low Density Lipoprotein (in vitro). The class given is biochemical. The conditions noted are these: Cu^+2, rabbit or monkey LDL, 37° C., 90 minutes, absorbance at 532 nm; non-linear regression log [I] vs. % inhibition. As to the method: In this in vitro assay, the inhibition of Cu^+2 mediated oxidation of rabbit or monkey LDL by an invention compound is determined spectrophotometrically. Oxidation of LDL results in the formation of LDL-diene which absorbs light at 532 nm. Inhibition of oxidation of LDL leads to a decrease in absorbance at 532 nm.
Rabbit or monkey LDL is prepared according to the procedures of Havel, Eder and Gragdon, "The Distribution and Chemical Composition of Ultracentrifugally Separated Lipoproteins in Human Serum,: J. Clin. Invest. 34, 1345-1353 (1955) and Parhtasarathy, Wieland and Steriberg, "A Role for Endothelial Cell Lipoxygenase in the Oxidative Modification of Low Density Lipoprotein, " Proc. Natl. Acad. Sci. USA 86, 1046-1050 (1989). Test compound solutions are prepared by dissolving the invention compounds in ethanol at concentrations up to 248 μM. The medium used is Dulbecco's phosphate buffered saline containing 0.5 mg/ml bovine serum albumin. For standards, 0 to 10 μl of an aqueous solution of 1,1,3,3-tetraethoxypropane (1 μmol/ml H2 O) in 4.1 ml of medium is used.
Test compound solution (100 μl) is added to 4 ml of medium in incubation tubes. To each tube is added 10 μl of LDL solution and 25 μl of aqueous copper sulfate solution (1.32 mg/ml H2 O). The tubes are incubated at 37° C. for 90 minutes and the oxidation reaction quenched by addition of 1 ml of thiobarbituric acid solution (0.67% in 50% acetic acid). The tubes are heated at 90° C. for 1 hour, then chilled in an ice bath and the chromophore extracted into 2 ml of n-butanol. Absorbence is read at 532 nm and the results are reported as nmols of malondialdehyde equivalents.
Significant differences (p<0.05) are determined by the Dunnett T-test or by the Student-Newman Keuls Test for significant differences between means. The assay is conducted using several concentrations [I] of the inhibitor test compounds. The LDL solution concentrations at different experiments were either 1.5 mg/ml, 2.5 mg/ml or 10.3 mg/ml. The IC50 is determined by non-linear regression, plotting log [I] vs. % inhibition. (Reference: K. Yagi, Biochemical Medicine 15, 212-216 (1976)).

Experiment [1] deals with LDL. As to conditions: cited from earlier work.
The subject of experiment [2] is LDL. The conditions noted are these: cited from earlier work. The source holds these as a separate data set.
The next experiment deals with WHHL rabbits. As to conditions: cited from earlier work.

In turn, `COC(=O)Cc1nc(-c2cc(C(C)(C)C)c(O)c(C(C)(C)C)c2)oc1C` [Example 1, [2-(3,5-di-tert-butyl-4-hydroxyphenyl)-5-methyloxazol-4-yl]-acetic acid methyl ester] registered an IC50 in the experiment on rabbit or monkey LDL of 70 nM.

In turn, `Cc1oc(-c2cc(C(C)(C)C)c(O)c(C(C)(C)C)c2)nc1CC(=O)O` [Example 2, [2-(3,5-di-tert-butyl-4-hydroxyphenyl)-5-methyloxazol-4-yl]-acetic acid] displayed an IC50 with rabbit or monkey LDL of 160 nM.

The compound `CCOC(=O)Cc1nc(-c2cc(C(C)(C)C)c(O)c(C(C)(C)C)c2)oc1C` [Example 3, [2-(3,5-di-tert-butyl-4-hydroxyphenyl)-5-methyloxazol-4-yl]-acetic acid ethyl ester] returned an IC50 in the experiment on rabbit or monkey LDL of 270 nM.

As to `COC(=O)Cc1coc(-c2cc(C(C)(C)C)c(O)c(C(C)(C)C)c2)n1` [Example 4, [2-(3,5-di-tert-butyl-4-hydroxyphenyl)-oxazol-4-yl]-acetic acid methyl ester], the IC50 in the experiment on rabbit or monkey LDL was determined as 250 nM.

For the compound `COC(=O)NC(=O)Cc1nc(-c2cc(C(C)(C)C)c(O)c(C(C)(C)C)c2)oc1C` [Example 5, {2-[2-(3,5-di-tert-butyl-4-hydroxyphenyl)-5-methyloxazol-4-yl]acetyl}carbamic acid methyl ester], the IC50 with rabbit or monkey LDL came to 230 nM.

On to `CC(C)(Sc1cc(C(C)(C)C)c(O)c(C(C)(C)C)c1)Sc1cc(C(C)(C)C)c(O)c(C(C)(C)C)c1` [probucol], for which the “inhibition of cell mediated oxidative modification of LDL (in words)” value in the experiment with LDL [1] was “inhibits both cell mediated and Cu^+2 mediated oxidative modification of LDL”. In addition, in the experiment on LDL [2], the “inhibition of Cu^+2 mediated oxidative modification of LDL (in words)” value was “inhibits both cell mediated and Cu^+2 mediated oxidative modification of LDL”. Also, the “inhibition of the formation of atherosclerotic lesions (in words)” value in the experiment with WHHL rabbits was “inhibit the formation of atherosclerotic lesions in WHHL rabbits”. For the same compound, the midpoint of inhibition in the experiment on rabbit or monkey LDL, the IC50, lay at 270 nM.

Broadly, the IC50 is the concentration needed to halve the response being measured.
